Results reported in PubChem BioAssay AID330 (DTP/NCI, 2004).
Toxic doses and inconclusive results are not listed. The calls were made as follows: active = survival T/C of 150% or more; inactive = T/C below 125% in these data.

Test system: P388 leukemia ip, CD2F1 mice, survival T/C
Assay: NCI In Vivo Anticancer Drug Screen. Data for tumor model P388 Leukemia (intraperitoneal) in CD2F1 (CDF1) mice
Details: endpoint: median survival time, higher = longer survival
Procedure, shortened: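 Mice carrying the transplanted tumor received test compound or vehicle. Survival was recorded in each group, and the value is the treated-group measurement divided by that of the vehicle-treated control group.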

[1] = dose: 50.0 mg/kg/injection, schedule: Q01DX005 (ip), vehicle: saline with Tween-80
[2] = dose: 100.0 mg/kg/injection, schedule: Q01DX005 (ip), vehicle: saline with Tween-80
[3] = dose: 200.0 mg/kg/injection, schedule: Q01DX005 (ip), vehicle: saline with Tween-80
[4] = dose: 25.0 mg/kg/injection, schedule: Q01DX009 (ip), vehicle: saline with Tween-80
[5] = dose: 50.0 mg/kg/injection, schedule: Q01DX009 (ip), vehicle: saline with Tween-80
[6] = dose: 100.0 mg/kg/injection, schedule: Q01DX009 (ip), vehicle: saline with Tween-80
[7] = dose: 200.0 mg/kg/injection, schedule: Q01DX009 (ip), vehicle: saline with Tween-80
[8] = dose: 50.0 mg/kg/injection, schedule: Q01DX009 (ip), vehicle: Klucel (hydroxypropylcellulose) (HPC)
[9] = dose: 100.0 mg/kg/injection, schedule: Q01DX009 (ip), vehicle: Klucel (hydroxypropylcellulose) (HPC)
[10] = dose: 200.0 mg/kg/injection, schedule: Q01DX009 (ip), vehicle: Klucel (hydroxypropylcellulose) (HPC)
[11] = dose: 400.0 mg/kg/injection, schedule: Q01DX009 (ip), vehicle: saline with Tween-80
[12] = dose: 100.0 mg/kg/injection, schedule: Q01DX001 (ip), vehicle: Klucel (hydroxypropylcellulose) (HPC)
[13] = dose: 100.0 mg/kg/injection, schedule: Q04DX002 (ip), vehicle: saline with Tween-80
[14] = dose: 200.0 mg/kg/injection, schedule: Q01DX001 (ip), vehicle: Klucel (hydroxypropylcellulose) (HPC)
[15] = dose: 200.0 mg/kg/injection, schedule: Q04DX002 (ip), vehicle: saline with Tween-80
[16] = dose: 400.0 mg/kg/injection, schedule: Q04DX002 (ip), vehicle: saline with Tween-80
[17] = dose: 100.0 mg/kg/injection, schedule: Q04DX003 (ip), vehicle: Klucel (hydroxypropylcellulose) (HPC)
[18] = dose: 200.0 mg/kg/injection, schedule: Q04DX003 (ip), vehicle: Klucel (hydroxypropylcellulose) (HPC)
[19] = dose: 400.0 mg/kg/injection, schedule: Q04DX003 (ip), vehicle: Klucel (hydroxypropylcellulose) (HPC)
[20] = dose: 60.0 mg/kg/injection, schedule: Q01DX005 (ip), vehicle: saline with Tween-80
[21] = dose: 120.0 mg/kg/injection, schedule: Q01DX005 (ip), vehicle: saline with Tween-80
[22] = dose: 240.0 mg/kg/injection, schedule: Q01DX005 (ip), vehicle: saline with Tween-80

Measured: T/C

Nc1c(Br)cc(Br)c2c1C(=O)c1ccccc1-2
inactive: [1] 98 % of control | [2] 91 % of control | [3] 96 % of control

COC1/C=C/OC2(C)Oc3c(C)c(O)c4c(O)c(c(/C=N/N5CC(C)N(C(=O)c6ccccc6)C(C)C5)c(O)c4c3C2=O)NC(=O)C(C)=C/C=C/C(C)C(O)C(C)C(O)C(C)C(OC(C)=O)C1C (centres undefined)
inactive: dose: 12.5 mg/kg/injection, schedule: Q01DX009 (ip), vehicle: saline with Tween-80 124 % of control | [4] 124 % of control | [5] 118 % of control | [6] 116 % of control | [7] 109 % of control

Cc1ccc(C)c(NC(=O)Nc2ccccc2C(N)=O)c1
inactive: [8] 91 % of control | [9] 113 % of control | [10] 104 % of control

O=C1N=C2C=CC=CN2C(=O)C1Cc1ccccc1 (centres undefined)
inactive: [6] 120 % of control | [7] 110 % of control | [11] 90 % of control

CCOC(=O)c1ccc(N(CCNc2cnc(NC(C)=O)[nH]c2=O)C(C)=O)cc1
inactive: [4] 92 % of control | [5] 88 % of control | [6] 92 % of control | [7] 89 % of control

OCC(O)/C=C/c1ccccc1 (centres undefined)
inactive: [12] 95 % of control | [13] 96 % of control | [14] 103 % of control | [15] 90 % of control | dose: 400.0 mg/kg/injection, schedule: Q01DX001 (ip), vehicle: Klucel (hydroxypropylcellulose) (HPC) 108 % of control | [16] 99 % of control

CCC1C(=O)OCCOCCOCCOCCOC1=O
inactive: [17] 106 % of control | [18] 100 % of control | [19] 107 % of control

O=C(O)C(=Cc1c2ccccc2cc2ccccc12)C(=O)O
inactive: [1] 95 % of control | [2] 99 % of control | [3] 114 % of control

NC(=O)c1nc2c(Nc3ccccc3Br)nc(N)nc2nc1N
inactive: dose: 100.0 mg/kg/injection, schedule: Q01DX001 (ip), vehicle: saline 104 % of control | dose: 200.0 mg/kg/injection, schedule: Q01DX001 (ip), vehicle: saline 101 % of control | dose: 400.0 mg/kg/injection, schedule: Q01DX001 (ip), vehicle: saline 97 % of control

O=C(NCCCCCCNC(=O)OCOC(=O)NCCCCCCNC(=O)Nc1ccc(SCCO)cc1)Nc1ccc(SCCO)cc1
inactive: dose: 100.0 mg/kg/injection, schedule: Q04DX003 (ip), vehicle: saline 102 % of control | dose: 200.0 mg/kg/injection, schedule: Q04DX003 (ip), vehicle: saline 102 % of control | dose: 400.0 mg/kg/injection, schedule: Q04DX003 (ip), vehicle: saline 99 % of control

c1cncc(-c2n[nH]c3c2CCCc2ccccc2-3)c1
inactive: dose: 12.5 mg/kg/injection, schedule: Q01DX009 (ip), vehicle: other 107 % of control | dose: 25.0 mg/kg/injection, schedule: Q01DX009 (ip), vehicle: other 100 % of control | dose: 50.0 mg/kg/injection, schedule: Q01DX009 (ip), vehicle: other 107 % of control | dose: 100.0 mg/kg/injection, schedule: Q01DX009 (ip), vehicle: other 96 % of control | dose: 200.0 mg/kg/injection, schedule: Q01DX009 (ip), vehicle: other 105 % of control

NCC1CCC(C(=O)O)CC1 (centres undefined)
inactive: [1] 94 % of control | [2] 92 % of control | [6] 99 % of control | [3] 100 % of control | [7] 101 % of control | dose: 400.0 mg/kg/injection, schedule: Q01DX005 (ip), vehicle: saline with Tween-80 103 % of control | [11] 100 % of control | dose: 800.0 mg/kg/injection, schedule: Q01DX005 (ip), vehicle: saline with Tween-80 89 % of control

CC1(C)C(=O)C(C)(C)C1O[Si](C)(C)OC1C(C)(C)C(=O)C1(C)C
inactive: [17] 102 % of control | [18] 101 % of control | [19] 93 % of control

COc1cc(C(Nc2ccccn2)c2cc3c(cc2OC(C)=O)OCO3)cc(OC)c1OC (centres undefined)
inactive: [20] 104 % of control | [21] 97 % of control | [22] 88 % of control

CN(C)c1ccc(C2(c3ccc(N(C)C)cc3)c3ccccc3C(=O)N2N)cc1
inactive: [1] 86 % of control | [2] 86 % of control

Cc1ccc(C)c(C2NC(=O)c3ccccc3N2)c1 (centres undefined)
inactive: [4] 104 % of control | [5] 104 % of control | [6] 101 % of control | [7] 112 % of control

CC(C)CN=C1NS(=O)(=O)c2ccccc21
inactive: [1] 100 % of control | [2] 101 % of control | [3] 101 % of control

COC(=O)c1c2csc3ccccc3n-2c(=O)c1C
inactive: [20] 102 % of control | [21] 101 % of control | [22] 95 % of control

CCOC(=O)N1C(C)CCCC1C (centres undefined)
inactive: dose: 60.0 mg/kg/injection, schedule: Q01DX005 (ip), vehicle: saline 106 % of control | dose: 120.0 mg/kg/injection, schedule: Q01DX005 (ip), vehicle: saline 105 % of control | dose: 240.0 mg/kg/injection, schedule: Q01DX005 (ip), vehicle: saline 95 % of control

CC1(C)CSC(=S)SC1
inactive: dose: 25.0 mg/kg/injection, schedule: Q04DX002 (ip), vehicle: saline 100 % of control | dose: 50.0 mg/kg/injection, schedule: Q04DX002 (ip), vehicle: saline 97 % of control | [13] 110 % of control | dose: 100.0 mg/kg/injection, schedule: Q04DX002 (ip), vehicle: saline 103 % of control

O=CN(CC(=O)O)CC(=O)O
inactive: dose: 50.0 mg/kg/injection, schedule: Q01DX005 (ip), vehicle: saline 100 % of control | dose: 100.0 mg/kg/injection, schedule: Q01DX005 (ip), vehicle: saline 100 % of control | dose: 200.0 mg/kg/injection, schedule: Q01DX005 (ip), vehicle: saline 102 % of control

CCCCCCCCCCCCC1=C(OC)C(NC(=O)CCCCCCCCCCC)=CC(=O)C1=O
inactive: dose: 50.0 mg/kg/injection, schedule: Q01DX001 (ip), vehicle: Klucel (hydroxypropylcellulose) (HPC) 92 % of control | [12] 88 % of control | [14] 90 % of control

COC(=O)C1c2cc3c(c(O)c2C(O)CC1(C)O)C(=O)c1c(O)cc2c(c1C3=O)OC1OC2(C)C(O)C(N(C)C)C1O (centres undefined)
inactive: dose: 25.0 mg/kg/injection, schedule: Q01DX010 (ip), vehicle: saline 100 % of control | dose: 50.0 mg/kg/injection, schedule: Q01DX010 (ip), vehicle: saline 90 % of control | dose: 100.0 mg/kg/injection, schedule: Q01DX010 (ip), vehicle: saline 100 % of control | dose: 200.0 mg/kg/injection, schedule: Q01DX010 (ip), vehicle: saline 100 % of control

c1cnc2c(NC3CCCCC3)ncnc2n1
inactive: [8] 100 % of control | [9] 98 % of control | [10] 97 % of control

C=CCCCCCCCCC(=O)NN1CCOCC1
inactive: dose: 100.0 mg/kg/injection, schedule: Q04DX003 (ip), vehicle: saline with Tween-80 95 % of control | dose: 200.0 mg/kg/injection, schedule: Q04DX003 (ip), vehicle: saline with Tween-80 100 % of control | dose: 400.0 mg/kg/injection, schedule: Q04DX003 (ip), vehicle: saline with Tween-80 86 % of control

O=S(=O)(OC1=CCCCC1)C(F)(F)F
inactive: [5] 100 % of control | [6] 109 % of control | [7] 112 % of control | [11] 115 % of control

Cc1cccc(N=C(C2=C(O)c3ccccc3C2=O)c2ccccc2)c1
inactive: dose: 25.0 mg/kg/injection, schedule: Q04DX002 (ip), vehicle: saline with Tween-80 100 % of control | dose: 50.0 mg/kg/injection, schedule: Q04DX002 (ip), vehicle: saline with Tween-80 97 % of control | [13] 98 % of control | [15] 92 % of control | [16] 97 % of control
